Source: patent US8729097B2, “Quinoline compounds as inhibitors of angiogenesis, human methionine aminopeptidase, and SIRT1, and methods of treating disorders” (The Johns Hopkins University, priority 2008, dated 2014)
Values joined by “and” are separate entries in the source; they are usually repeats but may differ in a detail not shown here. Equal values may be shown once. Read-outs that look alike come from different tables or passages of the source.

Legend:
[1] = test system: angiogenesis in Matrigel plugs; assay: Matrigel plug assay in vivo; settings: 60 mg/kg, i.p., nude mice, versus vehicle
Experimental: Female athymic nude mice (NCR nu/nu, 4-6 weeks old) were purchased from NCI-Frederick, Md. and treated in accordance with Johns Hopkins Animal Care and Use Committee procedures. […] Mice were pre-treated for 3 days before 0.5 mL of Matrigel (BD Biosciences) containing 150 ng/ml VEGF and 200 ng/ml bFGF was implanted subcutaneously. Drug treatment was continued daily for an additional 10 days. Mice were sacrificed, and Matrigel plugs were harvested, fixed in neutral buffered formalin, and processed for histology using MAS-trichrome staining. A cross-section of the entire Matrigel plug was photographed at ×100. And erythrocyte-filled blood vessels were counted per field in a blinded manner.

[2] = test system: N-terminal methionine processing of 14-3-3γ by hMetAP2; assay: N-terminal methionine processing of 14-3-3γ in HUVEC (Western blot); format: cell-based, human
Experimental: 14-3-3γ is known as a substrate of eukaryotic MetAPs and the inhibition of either isotype of MetAPs was reported to increase the N-terminal methionyl form of the protein.
Cells were lysed by adding 1 volume of 2× Laemmli buffer and were then boiled for 5 min. The samples were separated by SDS-PAGE and transferred to nitrocellulose membrane (Bio-Rad).

[3] = target: SirT3 (Homo sapiens, UniProt Q9NTG7); assay: biochemical
Chain of SirT3 (Q9NTG7 whole entry): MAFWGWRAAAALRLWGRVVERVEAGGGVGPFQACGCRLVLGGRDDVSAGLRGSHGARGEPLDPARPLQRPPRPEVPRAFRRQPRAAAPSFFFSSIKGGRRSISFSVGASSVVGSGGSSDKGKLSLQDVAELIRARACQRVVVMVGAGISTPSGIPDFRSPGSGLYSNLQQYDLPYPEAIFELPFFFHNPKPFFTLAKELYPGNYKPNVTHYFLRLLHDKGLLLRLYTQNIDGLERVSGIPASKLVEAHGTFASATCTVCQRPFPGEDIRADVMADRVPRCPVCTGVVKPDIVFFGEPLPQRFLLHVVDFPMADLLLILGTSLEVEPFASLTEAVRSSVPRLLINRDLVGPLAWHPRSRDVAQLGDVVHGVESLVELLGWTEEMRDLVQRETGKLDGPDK
Experimental: (§3) The sirtuin fluorometric assay kits were obtained from Biomol. The assay was conducted according to the manufacturer's instruction. One unit of SirT1 was used per reaction. For SirT2 and SirT3, 2 units were used for the assay.

[4] = target: SirT2 (Homo sapiens, UniProt Q8IXJ6); assay: biochemical; settings: SirT2 IC50, recombinant human sirtuin, fluorogenic substrate
Chain of SirT2 (Q8IXJ6 whole entry): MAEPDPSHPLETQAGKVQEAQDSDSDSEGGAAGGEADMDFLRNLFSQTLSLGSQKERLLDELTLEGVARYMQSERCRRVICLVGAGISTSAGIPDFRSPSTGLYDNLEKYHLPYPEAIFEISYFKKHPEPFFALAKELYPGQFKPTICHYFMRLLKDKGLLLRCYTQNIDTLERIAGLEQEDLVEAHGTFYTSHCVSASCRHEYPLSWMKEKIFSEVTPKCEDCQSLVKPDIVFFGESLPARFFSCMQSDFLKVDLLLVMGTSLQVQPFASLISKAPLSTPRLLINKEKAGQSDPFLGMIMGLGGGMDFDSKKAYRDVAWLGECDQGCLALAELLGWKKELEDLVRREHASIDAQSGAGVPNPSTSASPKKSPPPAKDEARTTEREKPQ
Experimental: as §3

[5] = target: T1, hMetAP2 (Homo sapiens, UniProt P50579); assay: MetAP enzymatic assay, hMetAP2; format: biochemical; settings: Co^2+ versus Mn^2+
T1 construct: made in house
T1 sequence (P50579 whole entry): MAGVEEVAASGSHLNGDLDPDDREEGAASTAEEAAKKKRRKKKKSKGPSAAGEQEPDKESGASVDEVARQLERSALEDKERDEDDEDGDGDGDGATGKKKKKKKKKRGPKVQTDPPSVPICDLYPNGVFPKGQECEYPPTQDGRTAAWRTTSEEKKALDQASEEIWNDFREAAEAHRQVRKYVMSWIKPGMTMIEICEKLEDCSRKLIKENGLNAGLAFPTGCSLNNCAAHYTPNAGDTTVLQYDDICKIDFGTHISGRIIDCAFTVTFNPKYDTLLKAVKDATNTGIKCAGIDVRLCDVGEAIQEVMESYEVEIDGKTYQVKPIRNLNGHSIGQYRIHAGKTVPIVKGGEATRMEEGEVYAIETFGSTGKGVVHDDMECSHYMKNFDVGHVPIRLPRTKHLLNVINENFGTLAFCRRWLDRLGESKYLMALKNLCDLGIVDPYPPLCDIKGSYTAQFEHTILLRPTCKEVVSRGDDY

[6] = test system: Saccharomyces cerevisiae strain BY4743; assay: Yeast growth assay (wild type, map1Δ, map2Δ); format: cell-based; settings: drug on paper disc
Text: Saccharomyces cerevisiae strain BY4743 (MATa/α his3Δ1/his3Δ1 leu2Δ0/leu2Δ0 lys2Δ0/LYS2) and its isogenic haploid derivatives for MetAP1 (map1Δ) and MetAP2 (map2Δ) deletion mutants were used for yeast growth assays. Drugs dissolved in DMSO were spotted onto sterile filter disks and dried before experiments. Exponentially growing yeast strains were mixed with top agar and plated on YPD (1% yeast extract/2% peptone/2% glucose) plates. The filter disks were then placed on the YPD plates containing yeasts and the incubation was continued for 48 h at 30° C.

[7] = test system: acetylation of p53 (K382), α-tubulin and histone-H3; assay: Acetylation status of sirtuin substrates in HUVEC (Western blot); format: cell-based, human
Experimental: (§1) Cells were lysed by adding 1 volume of 2× Laemmli buffer and were then boiled for 5 min. The samples were separated by SDS-PAGE and transferred to nitrocellulose membrane (Bio-Rad). Proteins were detected using primary antibodies for p53 (Santa Cruz), met-14-3-3γ (Novus), p21 (Santa Cruz), Rb (Santa Cruz), MetAP2 (Hu, X. et al (2006) Proc. Natl. Acad. Sci. U.S.A. 103, 18148-18153), SirT1 (Santa Cruz), acetyl-p53-K382 (Abeam), acetyl-tubulin (Sigma), histone-H3 (Santa Cruz), acetyl-H3 (Santa Cruz) and α-tubulin (TU-02, Santa Cruz) followed by the incubation with horseradish peroxidase (HRP)-conjugated anti-mouse or anti-rabbit antibodies (Santa Cruz) and enhanced chemiluminescence (ECL, Amersham).

[8] = test system: HCC1954 human breast cancer cells; assay: Breast cancer xenografts; format: in vivo, mice
Experimental: Approximately two million of HCC1954 cells were injected bilaterally and subcutaneously into female athymic nude mice (NCR nu/nu, n=5/group). After tumors became palpable, control mice were treated with vehicle (peanut oil with 5% DMSO). […] The tumor volume was measured using a vernier caliper and calculated according to the modified ellipsoid formula: Tumor volume (mm^3)=(short axis)^2×(long axis)×π/6
After 30 days of treatment, the mice were sacrificed and the tumor tissues were extracted for immunohistochemical analysis and Western blots.

[9] = test system: HUVEC; assay: Senescence associated-β-galactosidase (SA-β-gal) staining in HUVEC; format: cell-based, human
Experimental: Cells in 6-well plates were washed with PBS and fixed with 3% paraformaldehyde. After washing with PBS, the cells were incubated for 24 h at 37° C. (without CO2, protected from light) in freshly prepared SA-β-gal staining solution containing 1 mg/ml 5-bromo-4-chloro-3-indolyl β-D-galactopyranoside (X-gal), 5 mM potassium ferrocyanide, 5 mM potassium ferricyanide, 150 mM NaCl, 2 mM MgCl2 and 40 mM citric acid, titrated with NaH2PO4 to pH 6.0. SA-β-gal solution was then removed and the cells were washed with PBS. The stained cells were observed under a microscope.

[10] = test system: HUVEC; assay: HUVEC proliferation, [3H]-thymidine incorporation assay; format: cell-based, human; settings: Homo sapiens, HUVEC
Experimental: (§2) HCC1954 cells were grown in RPMI1640 containing 10% FBS. HUVEC were grown using the EGM-2 bullet kit (Cambrex) as per manufacturer's instructions. The cells were maintained in a humidified incubator adjusted to 5% CO2. For drug screening, 10 mM stock solutions of Johns Hopkins Drug Library were arrayed in 96-well plates and screened at a final concentration of 10 μM. The cell growth was determined using a [^3H]-thymidine incorporation assay. Cells (typically 5,000 cells/well) were seeded in 96-well plates containing 0.2 ml of growth media and allowed to adhere for 24 h. The cells were then treated with drugs for 24 h. Cells were pulsed with 1 μCi [^3H]-thymidine (MP Biomedicals, 6.7 Ci mmol^−1) for 8 h and harvested, upon trypsin treatment, onto glass fiber filters (Wallac, Turku, Finland), from which ^3H counts were determined using a Perkin Elmer MicroBeta plate reader.

[11] = test system: breast cancer cells as well as human umbilical vein endothelial cells (HUVECs); assay: Cell proliferation assay, breast cancer cells and HUVECs; format: cell-based; settings: Homo sapiens, HUVEC, read-out: IC50 of proliferation, all the cell types
Experimental: Cell proliferation assay was performed using several different kinds of breast cancer cells as well as human umbilical vein endothelial cells (HUVECs). […].
as §2

[12] = test system: p53 and Rb pathways in HUVECs; assay: Western blot of p53, p21 and Rb in HUVEC; format: cell-based, human
Experimental: as §1

## O=[N+]([O-])c1ccc(O)c2ncccc12 [Entry 1c, nitroxoline]
[1]
  density of new blood vessels in Matrigel plugs: dramatic reduction in the density of new blood vessels
[2]; 24 h
  N-terminal methioninylated 14-3-3γ level: dose-dependently increased
[2]; Homo sapiens, read-out: inhibition of the processing of 14-3-3γ compared with hMetAP2 siRNA
  inhibition at 5 µM: ~80%
[3]
  IC50: > 50 µM
[4]
  IC50: 43 µM and 35 µM
[5]
  potency on MetAP-2 with Co^2+ lower than with Mn^2+: 25 fold
[6]; map1Δ
  growth of MetAP-1 deletion mutant (map1Δ): significantly inhibited
[6]; map2Δ
  growth of MetAP-2 deletion mutant: did not affect the growth
[6]; wild type
  growth of wild-type yeast: did not inhibit the yeast growth
[7]; HUVEC treated for 20 h
  acetylation of p53-K382: increased the acetylation of p53-K382
[7]; HUVEC, 6 h or 20 h
  acetylation status of tubulin or histone-H3: did not change the acetylation status
[7]; HUVEC, with TSA (200 nM), 24 h, nitroxoline 20 μM
  acetylation of tubulin and histone-H3 in the presence of TSA: significantly increased the acetylation of both tubulin and histone-H3
[8]; Western blot of tumor tissues
  level of p53 protein in tumor tissues: increased
  p53 acetylation in tumor tissues: significantly induced p53 acetylation
[8]; anti-CD31 immunohistochemical staining
  tumor-associated angiogenesis: strongly inhibited
[8]; day 30, 60 mg/kg i.p., nude mice
  inhibition of growth of HCC1954 xenografts: 55%
[9]; 72 h, valproic acid 0.1 mM, TNP-470 20 nM
  premature senescence in HUVEC: induced premature senescence
[9]; 72 h treatment, then fresh media for an additional 48 h
  reversibility of senescence: remained senescent
[10]; read-out: Selectivity HUVEC IC50
  IC50: 1.98 µM
[10]; Table 4, read-out: HUVEC IC50
  IC50: 1.98 µM
[11]
  IC50: 2 to 5 µM
[12]
  p53 protein level: upregulation
[12]; 8% SDS-PAGE
  Rb hyperphosphorylation: inhibited its hyperphosphorylation
[12]; 12% SDS-PAGE
  total amount of Rb protein: increased the total amount of Rb protein
[12]; longer incubation
  p21 protein level on longer incubation: upregulated
[12]; up to 72 h
  p53 protein level on prolonged exposure: sustained increase in p53 protein level
[12]; within 24 h of treatment
  expression of p21: no effect
